Experimental data published in US7932262B2 (Novartis AG, priority 2006, dated 2011).

Columns and labels:
PDK1 kinase = biological target: T1, PDK1 kinase (Homo sapiens, UniProt O15530); assay: PDK1 Kinase Alpha Screen Assay; format: biochemical; settings: PDK1 Kinase Alpha Screen Assay; read-out: PDK1 IC50
T1 sequence (O15530 1-556): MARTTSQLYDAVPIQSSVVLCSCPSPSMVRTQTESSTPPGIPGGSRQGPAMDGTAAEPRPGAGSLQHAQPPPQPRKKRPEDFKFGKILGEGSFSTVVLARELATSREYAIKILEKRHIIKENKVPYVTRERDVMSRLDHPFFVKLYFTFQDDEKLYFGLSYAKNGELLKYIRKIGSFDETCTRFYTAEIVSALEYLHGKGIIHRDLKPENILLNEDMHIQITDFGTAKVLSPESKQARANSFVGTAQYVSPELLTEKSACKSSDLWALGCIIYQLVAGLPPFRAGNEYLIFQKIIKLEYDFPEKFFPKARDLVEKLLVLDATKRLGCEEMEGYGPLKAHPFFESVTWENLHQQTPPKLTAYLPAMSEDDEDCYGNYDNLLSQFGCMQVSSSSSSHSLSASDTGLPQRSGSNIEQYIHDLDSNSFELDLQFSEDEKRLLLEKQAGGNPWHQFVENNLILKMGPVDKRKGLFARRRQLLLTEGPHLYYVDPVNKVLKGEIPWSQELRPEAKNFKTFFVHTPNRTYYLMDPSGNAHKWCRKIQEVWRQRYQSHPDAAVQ
Outline: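 Detection used AlphaScreen: streptavidin donor and protein A acceptor beads (25 μg/ml each) bridged by a phospho-(Ser/Thr) PKA substrate antibody binding phosphorylated peptide. Reaction: biotin-PDK1-4 peptide (50 nM), ATP (10 uM), PDK1 in pH 7.5 Tris/MgCl2/DTT buffer, 3-18 hours, EDTA-stopped.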

PC-3 cells = assay: Cell Proliferation Assay (Cell Titer Glo), PC-3 cell line; format: cell-based; settings: Homo sapiens, PC-3, Cell Proliferation Assay, PC3; read-out: CPEC50 PC3
Outline: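 Cell Titer Glo luminescence, read after fresh medium replaced the dosing medium, gave viability of PC-3 cells plated at 1000 cells/well. Compounds, 1:3 serially diluted in DMSO at 500× and then in medium, were added after 3-5 h adhesion and incubated 3 days at 37° C.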

SMILES | IC50 (PDK1 kinase) | EC50 (PC-3 cells)
Clc1cc(Nc2ncc3c(Cl)ccc(OC4CNC4)c3n2)ccc1N1CCOCC1 [Compound 611, 8-(azetidin-3-yloxy)-5-chloro-N-(3-chloro-4-morpholinophenyl)quinazolin-2-amine] | < 5 µM | < 5 µM
CC(C)NC(=O)c1ccc(Nc2ncc3c(Cl)ccc(OC4CNC4)c3n2)cc1 [Compound 612, 4-(8-(azetidin-3-yloxy)-5-chloroquinazolin-2-ylamino)-N-isopropylbenzamide] | < 5 µM | 5 to 10 µM
O=S(=O)(c1cccc(Nc2ncc3c(Cl)ccc(OC4CNC4)c3n2)c1)N1CCOCC1 [Compound 616, 8-(azetidin-3-yloxy)-5-chloro-N-(3-(morpholinosulfonyl)phenyl)quinazolin-2-amine] | < 5 µM | < 5 µM
Clc1ccc(OC2CCNCC2)c2nc(Nc3cccc(-c4cc[nH]n4)c3)ncc12 [Compound 617, N-(3-(1H-pyrazol-3-yl)phenyl)-5-chloro-8-(piperidin-4-yloxy)quinazolin-2-amine] | < 5 µM | 5 to 10 µM
CC(C)N1CCC(Oc2cc3nc(Nc4ccc(N5CCOCC5)cc4)ncc3cc2-c2nccs2)CC1 [Compound 619, 7-(1-isopropylpiperidin-4-yloxy)-N-(4-morpholinophenyl)-6-(thiazol-2-yl)quinazolin-2-amine] | < 5 µM | < 5 µM
CC(C)N1CCC(Oc2cc3nc(Nc4ccc(N5CCOCC5)cc4)ncc3cc2Br)CC1 [Compound 620, 6-bromo-7-(1-isopropylpiperidin-4-yloxy)-N-(4-morpholinophenyl)quinazolin-2-amine] | < 5 µM | < 5 µM
C#Cc1cc(-c2ccc(NCCN3CCCC3)nc2)c2nc(Nc3ccc(S(N)(=O)=O)cc3)ncc2c1 [Compound 634, 4-(6-ethynyl-8-(6-(2-(pyrrolidin-1-yl)ethylamino)pyridin-3-yl)quinazolin-2-ylamino)benzenesulfonamide] | < 5 µM | < 5 µM
C#Cc1cc(OC2CN3CCC2CC3)c2nc(Nc3ccc(S(N)(=O)=O)cc3)ncc2c1 (stereo not drawn) [Compound 635, 4-(6-ethynyl-8-(quinuclidin-3-yloxy)quinazolin-2-ylamino)benzenesulfonamide] | < 5 µM | < 5 µM
C#Cc1cc2cnc(Nc3ccc(C(=O)NC(C)C)cc3)nc2cc1OC1CCN(C(C)C)CC1 [Compound 636, 4-(6-ethynyl-7-(1-isopropylpiperidin-4-yloxy)quinazolin-2-ylamino)-N-isopropylbenzamide] | < 5 µM | < 5 µM
CC(C)NC(=O)c1ccc(Nc2ncc3cc(C#N)c(OC4CCN(C(C)C)CC4)cc3n2)cc1 [Compound 639] | < 5 µM | < 5 µM
O=C(c1ccc(Nc2ncc3cc(C4CC4)c(OC4CCNCC4)cc3n2)cc1)N1CCOCC1 [Compound 642, (4-(6-cyclopropyl-7-(piperidin-4-yloxy)quinazolin-2-ylamino)phenyl)(morpholino)methanone] | < 5 µM | < 5 µM
N#Cc1cc2cnc(Nc3ccc(N4CCOCC4)cc3)nc2cc1OC1CCNCC1 [Compound 644, 2-(4-morpholinophenylamino)-7-(piperidin-4-yloxy)quinazoline-6-carbonitrile] | < 5 µM | < 5 µM
NC1CCN(c2ccc(Cl)c3cnc(Nc4ccc(C(=O)N5CCOCC5)cc4)nc23)CC1 [Compound 694, (4-(8-(4-aminopiperidin-1-yl)-5-chloroquinazolin-2-ylamino)phenyl)(morpholino)methanone] | < 5 µM | < 5 µM

Other lines, results leading:

IC50 (PDK1 kinase) | EC50 (PC-3 cells) | SMILES
< 5 µM | 5 to 10 µM | Clc1ccc(OC2CNC2)c2nc(Nc3ccc(N4CCOCC4)cc3)ncc12 [Compound 609, 8-(azetidin-3-yloxy)-5-chloro-N-(4-morpholinophenyl)quinazolin-2-amine]
< 5 µM | 5 to 10 µM | Fc1cc(Nc2ncc3c(Cl)ccc(OC4CNC4)c3n2)ccc1N1CCOCC1 [Compound 610, 8-(azetidin-3-yloxy)-5-chloro-N-(3-fluoro-4-morpholinophenyl)quinazolin-2-amine]
< 5 µM | < 5 µM | O=C(NC1CC1)c1ccc(Nc2ncc3c(Cl)ccc(OC4CNC4)c3n2)cc1 [Compound 613, 4-(8-(azetidin-3-yloxy)-5-chloroquinazolin-2-ylamino)-N-cyclopropylbenzamide]
< 5 µM | < 5 µM | c1cc(N2CCOCC2)ccc1Nc1ncc2ccc(OC3CCNCC3)cc2n1 [Compound 614, N-(4-morpholinophenyl)-7-(piperidin-4-yloxy)quinazolin-2-amine]
< 5 µM | < 5 µM | CC(C)NS(=O)(=O)c1ccc(Nc2ncc3c(Cl)ccc(OC4CNC4)c3n2)cc1 [Compound 615, 4-(8-(azetidin-3-yloxy)-5-chloroquinazolin-2-ylamino)-N-isopropylbenzenesulfonamide]
< 5 µM | 5 to 10 µM | NS(=O)(=O)c1ccc(Nc2ncc3ccccc3n2)cc1 [Compound 618, 4-(quinazolin-2-ylamino)benzenesulfonamide]
< 5 µM | < 5 µM | CC(C)N1CCC(Oc2cc3nc(Nc4ccc(N5CCOCC5)cc4)ncc3cc2-c2cn[nH]c2)CC1 [Compound 621, 7-(1-isopropylpiperidin-4-yloxy)-N-(4-morpholinophenyl)-6-(1H-pyrazol-4-yl)quinazolin-2-amine]
< 5 µM | < 5 µM | CC(C)NC(=O)c1ccc(Nc2ncc3cc(C4CC4)c(OC4CCN(C(C)C)CC4)cc3n2)cc1 [Compound 637, 4-(6-cyclopropyl-7-(1-isoproylpiperidin-4-yloxy)quinazolin-2-ylamino)-N-isopropylbenzamide]
< 5 µM | < 5 µM | CC(C)NC(=O)c1ccc(Nc2ncc3cc(-c4nccs4)c(OC4CCN(C(C)C)CC4)cc3n2)cc1 [Compound 638, N-isopropyl-4-(7-(1-isoproylpiperidin-4-yloxy)-6-(thiazol-2-yl)quinazolin-2-ylamino)benzamide]
< 5 µM | < 5 µM | N#Cc1cc2cnc(Nc3ccc(C(=O)N4CCOCC4)cc3)nc2cc1OC1CCNCC1 [Compound 640, 2-(4-(morpholine-4-carbonyl)phenylamino)-7-(piperidin-4-yloxy)quinazoline-6-carbonitrile]
< 5 µM | < 5 µM | C#Cc1cc2cnc(Nc3ccc(C(=O)N4CCOCC4)cc3)nc2cc1OC1CCNCC1 [Compound 641]
< 5 µM | < 5 µM | c1cc(N2CCOCC2)ccc1Nc1ncc2cc(C3CC3)c(OC3CCNCC3)cc2n1 [Compound 643, 6-cyclopropyl-N-(4-morpholinophenyl)-7-(piperidin-4-yloxy)quinazolin-2-amine]
< 5 µM | < 5 µM | Brc1cc2cnc(Nc3ccc(N4CCOCC4)cc3)nc2cc1OC1CCNCC1 [Compound 650, 6-bromo-N-(4-morpholinophenyl)-7-(piperidin-4-yloxy)quinazolin-2-amine]
< 5 µM | 5 to 10 µM | COc1ccc(Cl)c2cnc(Nc3cc(CN(C)C)cc(NC(C)=O)c3)nc12 [Compound 691]
< 5 µM | < 5 µM | O=C(c1ccc(Nc2ncc3c(Cl)ccc(OC4CCNCC4)c3n2)cc1Cl)N1CCOCC1 [Compound 692, (2-chloro-4-(5-chloro-8-(piperidin-4-yloxy)quinazolin-2-ylamino)phenyl) (morpholino)methanone]
< 5 µM | < 5 µM | O=C(c1ccc(Nc2ncc3c(Cl)ccc(NC4CCNCC4)c3n2)cc1)N1CCOCC1 [Compound 693, (4-(5-chloro-8-(piperidin-4-ylamino)quinazolin-2-ylamino)phenyl)(morpholino)methanone]
< 5 µM | 5 to 10 µM | CC(C)N1CCC(Nc2ccc(Cl)c3cnc(Nc4ccc(C(=O)N5CCOCC5)cc4)nc23)CC1 [Compound 695, (4-(5-chloro-8-(1-isopropylpiperidin-4-ylamino)quinazolin-2-ylamino)phenyl)(morpholino)methanone]
< 5 µM | < 5 µM | C#Cc1cc(OC2CCN(C(C)C)CC2)c2nc(Nc3cccc(N4CCOCC4)c3)ncc2c1 [Compound 697, 6-ethynyl-8-(1-isopropylpiperidin-4-yloxy)-N-(3-morpholinophenyl)quinazolin-2-amine]
< 5 µM | < 5 µM | C#Cc1cc(OC2CCN(C(C)C)CC2)c2nc(Nc3ccc(N4CCOCC4)cc3)ncc2c1 [Compound 698, 6-ethynyl-8-(1-isopropylpiperidin-4-yloxy)-N-(4-morpholinophenyl)quinazolin-2-amine]
< 5 µM | < 5 µM | CC(C)N1CCC(Oc2cc(C#N)cc3cnc(Nc4ccc(N5CCOCC5)cc4)nc23)CC1 [Compound 699, 8-(1-isopropylpiperidin-4-yloxy)-2-(4-morpholinophenylamino)quinazoline-6-carbonitrile]
